Test system: IgE antibodies from patients
Assay: Epitope mapping (2) overlapping (10-amino-acid peptides) and (3) alanine scanning on peptide arrays
Format: binding, human
Settings: overlapping peptides with flanking sequence
Description: On the basis of the sequences (SEQ ID NOs: 272-295 for vitellogenin-2 precursor, SEQ ID NOs: 296-303 for vitellogenin-3, SEQ ID NOs: 304-311 for apolipoprotein B precursor, and SEQ ID NOs: 312-318 for vitellogenin-1 or lipovitellin-1) of the peptides bound to an IgE antibody in serum in a patient-specific manner as described above in (A), a library of overlapping peptide fragments (length: 10 amino acids) was prepared using the sequences of the peptides and sequences in which sequences were added so as to flank each peptide in the amino acid sequences of allergen components (amino acid sequences of SEQ ID NO: 59, 106 or 262 for vitellogenin-2 precursor, SEQ ID NO: 2, 13 or 47 for vitellogenin-3, SEQ ID NO: 152, 237 or 251 for apolipoprotein B, and SEQ ID NO: 18 for vitellogenin-1 or lipovitellin-1) comprising the sequences of the peptide to carry out epitope mapping.
The peptides to be synthesized were shifted by one amino acid.
The library was prepared by the same procedure as described above in (A), and the presence or absence of binding of an IgE antibody present in the serum of a patient and a non-egg-allergic subject to each peptide fragment was measured by the same technique as described above. Amino acids at positions where the binding activity against IgE antibodies from patients were lost or decreased in the peptides shifted by one amino acid while binding activity against IgE antibodies from non-egg-allergic subjects arose were confirmed as amino acids adversely affecting the specificity of binding to IgE antibodies.
Chemiluminescence intensity in images obtained by measurement was converted into a numeric value in the same manner as in (A) using ImageQuant TL (GE Healthcare). Numeric values determined from images obtained as a result of using only anti-human IgE antibody-HRP antibody without carrying out the procedures (2) and (3) described above in the subsection titled (3) Spotting of cellulose-bound peptide solution were […] numeric values determined from images obtained from results about the serum of 6 patients. It was determined that a peptide having the resulting value larger than 0 had no binding activity against IgE antibodies when having less than 20% of values obtained using the sequences (amino acid sequences of SEQ ID NO: 59, 106 or 262 for vitellogenin-2, SEQ ID NO: 2, 13 or 47 for vitellogenin-3, SEQ ID NO: 152, 237 or 251 for apolipoprotein B, and SEQ ID NO: 18 for vitellogenin-1 or lipovitellin-1) serving as the basis of overlapping, had binding activity, albeit poor, against IgE antibodies when having 20% or more and less than 50% thereof, had binding activity, albeit somewhat poor, against IgE antibodies when having 50% or more and less than 70% thereof, had almost equivalent binding activity against IgE antibodies when having 70% or more and less than 90% thereof, and had equivalent or good binding activity against IgE antibodies and thus had remaining binding activity against IgE antibodies when having 90% or more thereof.
From the amino acid sequences identified above in (A), a library of peptide fragments in which N-terminal amino acids were substituted one by one by alanine according to a technique called alanine scanning (Non Patent Literature 1) was prepared by the same technique as described above. The presence or absence of binding of an IgE antibody present in the serum of a patient and a non-egg-allergic subject to each peptide fragment was measured by the same technique as described above. Amino acids at positions where the binding activity against IgE antibodies from patients were lost or decreased by the substitution by alanine while binding activity against IgE antibodies from non-egg-allergic subjects arose were confirmed as amino acids important for exertion of original antigenicity, or amino acids influencing exertion of original antigenicity.

Row | Substance | binding to IgE antibodies from patients, sequence comprising a region carboxy-terminally adjacent to the epitope | binding to IgE antibodies from patients, sequence comprising a region amino-terminally adjacent to the epitope
1 | SEQ ID NO: 551: sequence comprising a region carboxy-terminally adjacent to epitope 30 (QRKFVKIE; epitope) | binding to IgE antibodies from patients | 
2 | SEQ ID NO: 409: sequence comprising a region amino-terminally adjacent to epitope 10 (LQQVMKTVVE; epitope) |  | binding to IgE antibodies from patients
3 | SEQ ID NO: 576: sequence comprising a region amino-terminally adjacent to epitope 35 (YQVSKRVS; epitope) |  | binding to IgE antibodies from patients
4 | SEQ ID NO: 542: sequence comprising a region carboxy-terminally adjacent to epitope 27 (YDAEKKRE; epitope) | binding to IgE antibodies from patients | 
5 | SEQ ID NO: 452: sequence comprising a region amino-terminally adjacent to epitope 17 (TNLTDSSKWK; epitope) |  | binding to IgE antibodies from patients
6 | SEQ ID NO: 624: sequence comprising a region carboxy-terminally adjacent to epitope 40 (KLEFLLSKK; epitope) | binding to IgE antibodies from patients | 
7 | SEQ ID NO: 462: sequence comprising a region amino-terminally adjacent to epitope 19 (NKIKTFNE; epitope) |  | binding to IgE antibodies from patients
8 | SEQ ID NO: 479: sequence comprising a region amino-terminally adjacent to epitope 20 (KSAGEATNLK; epitope) |  | binding to IgE antibodies from patients
9 | SEQ ID NO: 535: sequence comprising a region carboxy-terminally adjacent to epitope 27 (YDAEKKREY; epitope) | binding to IgE antibodies from patients | 
10 | SEQ ID NO: 351: sequence comprising a region carboxy-terminally adjacent to epitope 4 (PKTVQGYL; epitope) | binding to IgE antibodies from patients | 
11 | SEQ ID NO: 676: sequence comprising a region carboxy-terminally adjacent to epitope 47 (PIEKIQVTI; epitope) | binding to IgE antibodies from patients | 
12 | SEQ ID NO: 609: sequence comprising a region carboxy-terminally adjacent to epitope 38 (LQMSSSV; epitope) | binding to IgE antibodies from patients | 

More lines, now with the values ahead:

Row | binding to IgE antibodies from patients, sequence comprising a region carboxy-terminally adjacent to the epitope | binding to IgE antibodies from patients, sequence comprising a region amino-terminally adjacent to the epitope | Substance
13 |  | binding to IgE antibodies from patients | SEQ ID NO: 384: sequence comprising a region amino-terminally adjacent to epitope 8 (IKELGKALQG; epitope)
14 |  | binding to IgE antibodies from patients | SEQ ID NO: 605: sequence comprising a region amino-terminally adjacent to epitope 38 (LVNYSPTKG; epitope)
15 | binding to IgE antibodies from patients |  | SEQ ID NO: 523: sequence comprising a region carboxy-terminally adjacent to epitope 23 (FVKLEKTVQL; epitope)
16 | binding to IgE antibodies from patients |  | SEQ ID NO: 380: sequence comprising a region carboxy-terminally adjacent to epitope 8 (ELPTETPLVS; epitope)
17 |  | binding to IgE antibodies from patients | SEQ ID NO: 353: sequence comprising a region amino-terminally adjacent to epitope 5 (CNIALKLLSP; epitope)

Same assay, conditions: procedures (B) overlapping and (C) alanine scanning

Row | Substance | region within the epitope important for binding to IgE antibodies from patients
18 | SEQ ID NO: 455: region in epitope 17 (TDSSKWKLCA; epitope) | important for binding
19 | SEQ ID NO: 482: region in epitope 20 (ATNLKAINI; epitope) | important for binding
20 | SEQ ID NO: 343: region in epitope 4 (LKKIAWKDP; epitope) | important for binding
21 | SEQ ID NO: 397: region in epitope 8 (KALQGWKELP; epitope) | important for binding
22 | SEQ ID NO: 333: region in epitope 3 (REDKMKLAL; epitope) | important for binding
23 | SEQ ID NO: 509: region in epitope 21 (DKLYFDGKT; epitope) | important for binding
24 | SEQ ID NO: 562: region in epitope 34 (DEPLNV; epitope) | important for binding
25 | SEQ ID NO: 680: region in epitope 47 (SFKPVY; epitope) | important for binding
26 | SEQ ID NO: 486: region in epitope 20 (KAINIKIGS; epitope) | important for binding
27 | SEQ ID NO: 446: region in epitope 16 (PKRKLPGDRA; epitope) | important for binding
28 | SEQ ID NO: 407: region in epitope 9 (ELLQQ; epitope) | important for binding
29 | SEQ ID NO: 449: region in epitope 16 (RKLPGDRATS; epitope) | important for binding

Results, then the substance that gave them:

Row | region within the epitope important for binding to IgE antibodies from patients | Substance
30 | important for binding | SEQ ID NO: 598: region in epitope 37 (SGIVTPGA; epitope)
31 | important for binding | SEQ ID NO: 392: region in epitope 8 (GWKELPTETP; epitope)
32 | important for binding | SEQ ID NO: 589: region in epitope 37 (IVTPGAKVAV; epitope)
33 | important for binding | SEQ ID NO: 436: region in epitope 15 (SSSNSKSSSS; epitope)
34 | important for binding | SEQ ID NO: 346: region in epitope 4 (AWKDPKTVQG; epitope)
35 | important for binding | SEQ ID NO: 379: region in epitope 8 (KALQGWKELP; epitope)
36 | important for binding | SEQ ID NO: 391: region in epitope 8 (GWKELPTET; epitope)
37 | important for binding | SEQ ID NO: 616: region in epitope 39 (LLDRKVALT; epitope)
38 | important for binding | SEQ ID NO: 581: region in epitope 35 (SVPGLNP; epitope)

From patent publication US20230190924A1, “ANTIGEN OF ALLERGY AND EPITOPE THEREOF” (HOYU CO., LTD., priority 2017, published 2023)
